Assay results from US12171232B1, “N-[(4,6-dimethylpyrimidin-2-yl)carbamothioyl] pyridine-3-carboxamide as an eco-friendly insecticidal agent against Spodoptera littoralis (boisd.)” (KING FAISAL UNIVERSITY, priority 2023, dated 2024).
≈ marks a conversion by molar mass, not a printed value. Like-named read-outs stand apart in the source and are kept apart here.

Test system: Spodoptera littoralis
Experiment: Insecticidal bioassay screening (castor leaf dip) on larvae of the laboratory strain of cotton leafworm
Format: in vivo
Conditions: for Toxicity index %: 72 hrs, Diflubenzuron's LC50 / compound's LC50 x 100; for LC90 (mg/L) at 95%: laboratory strain, after 72 hrs of treatment; for LC50: Spodoptera littoralis, foliar
Procedure: Five concentrations (200, 100, 50, 25, 12.5 ppm) were designed for this synthetic compound and the reference Diflubenzuron compound as the dynamic ingredients based on ppm via diluting the commercial formulation.
In this experiment, castor leaves are immersed in each of the previously prepared concentrations of the components for 10 seconds and then left to dry for 60 minutes. Larvae of the second and fourth instars of each checked strain are prepared with treated leaves in gauze-covered glass containers for 72 hrs. An untreated control is made in which leaves are dipped in triton x-100 and distilled water only. Then the preserved leaves were removed & fresh, untreated leaves were provided for 72 hours. Three replicates (10 larvae each) were checked for each concentration. Daily inspection was carried out for all treatments and mortality percentages were recorded 3 days (72 hours) after treatment. The average mortality percentage was corrected employing Abbott's formula. The corrected mortality rate for each of the previously synthesized compounds is statistically calculated according to Finney (1970). Through this rate, the corresponding concentration test lines (LDP lines) are assessed.

[1] = 72 h, read-out: LC50 (mg/L) at 95%, 2nd instar larvae, laboratory strain, after 72 hrs of treatment
[2] = 72 h, read-out: LC50 (mg/L) at 95%, 4th instar larvae, laboratory strain, after 72 hrs of treatment

Structure (SMILES): Cc1cc(C)nc(NC(=S)NC(=O)c2cccnc2)n1 [Compound 2, N-[(4,6-Dimethylpyrimidin-2-yl)carbamothioyl]pyridine-3-carboxamide]
- Toxicity index % (2nd instar larvae): 31.8%
- LC90 (mg/L) at 95% (2nd instar larvae): 2112.3 mg/L (≈ 7350 µM)
- Toxicity index % (4th instar larvae): 44.9%
- LC90 (mg/L) at 95% (4th instar larvae): 5732.3 mg/L (≈ 19900 µM)
- LC50 [1]: ~142 mg/L (≈ 495 µM)
- LC50 [2]: ~321 mg/L (≈ 1120 µM)
- activity against Spodoptera littoralis (result in words, from Table 1 and FIGS. 2A-2B, 72 h): active

Structure (SMILES): O=C(NC(=O)c1c(F)cccc1F)Nc1ccc(Cl)cc1 [Diflubenzuron]
- Toxicity index % (2nd instar larvae): 100%
- LC90 (mg/L) at 95% (2nd instar larvae): 520.0 mg/L (≈ 1670 µM)
- Toxicity index % (4th instar larvae): 100%
- LC90 (mg/L) at 95% (4th instar larvae): 1540.5 mg/L (≈ 4960 µM)
- LC50 [1]: 45.2 mg/L (≈ 145 µM)
- LC50 [2]: 144 mg/L (≈ 464 µM)
- LC50 (against Spodoptera littoralis under laboratory conditions, instar not stated): 45.2 mg/L (≈ 145 µM)
